Test results taken from publication PMC10905995, “Strategy for the Enzymatic Acylation of the Apple Flavonoid Phloretin Based on Prior α-Glucosylation” (Journal of Agricultural and Food Chemistry, 2024).
≈ marks a conversion by molar mass, not a printed value.

Assays:
[1] = Aqueous solubility (saturated conditions, 3 days, UV 297 nm); format: physicochemical; details: water, 25 °C, thermodynamic from solid
Method: The compounds were incubated at 25 °C in water (saturated conditions) during 3 days under orbital stirring (1000 rpm). Then, the samples were centrifuged, and the supernatants (200 μL) were analyzed in triplicate in a 96-well plate, using a phloretin calibration curve in methanol (0–200 μg/mL). The absorbance was measured at 297 nm in a UV–vis spectrophotometer (Tecan Infinite M200).

[2] = In vitro percutaneous absorption, Franz static diffusion cells; format: in vitro ADME; details: pig skin biopsies, 24 h exposure; for effect of acylation on skin absorption: versus phloretin and 4′-O-α-glucoside
Method: The study was carried out in vitro with pig biopsies placed on Franz static diffusion cells (3 mL, 1.86 cm^2 of exposed area, […], Lara-Spiral, Courtenon, France) in order to determine the distribution of the active compound (API) at the different skin layers after an exposure time of 24 h. All materials and procedures for this test have been described in a previous report employing phloretin and two glucosides.[33] The concentration of the extracted active compound was determined with the HPLC method described before.
Figure 6 In vitro percutaneous absorption of acylated derivatives of phloretin and their precursors (phloretin and its 4′-O-α-glucoside) within the different skin layers. W is the surface excess, SC is the stratum corneum, E is the epidermis, D is the dermis, FR is the fluid receptor, and Perc. Abs. is the percutaneous absorption. The results are expressed as μg/cm^2 of the active pharmaceutical ingredient (API). Mean values ± standard deviations, n = 3; *p < 0.05 vs phloretin; ^#p < 0.05 vs α-Glc-phloretin.

[3] = design: method as in doi:10.1002/adsc.202100201; details: cited from earlier work

Structure (SMILES) | solubility at 3 days [1] [µg/mL] | effect of acylation on skin absorption [2] | percutaneous absorption, increase versus phloretin and 4′-O-α-glucoside [2] | aqueous solubility greater than aglycone ([3]; versus phloretin aglycone) [fold] | solubility ([3]; water, 25 °C, data available in a previous article) [mg/L]
CCCCCCCCCCCCCCCC(=O)OC[C@H]1O[C@H](Oc2cc(O)c(C(=O)CCc3ccc(O)cc3)c(O)c2)[C@H](O)[C@@H](O)[C@@H]1O [1c, phloretin 4′-O-(6-O-palmitoyl)-α-D-glucopyranoside] | 7.1 ± 0.3 (≈ 10.5 µM) | no significant effect | – | – | –
CCCCCCCCCCCC(=O)OC[C@H]1O[C@H](Oc2cc(O)c(C(=O)CCc3ccc(O)cc3)c(O)c2)[C@H](O)[C@@H](O)[C@@H]1O [1b, phloretin 4′-O-(6-O-lauroyl)-α-D-glucopyranoside] | 6 ± 0.2 (≈ 9.7 µM) | – | approximately 3 fold | – | –
O=C(CCc1ccc(O)cc1)c1c(O)cc(O[C@H]2O[C@H](CO)[C@@H](O)[C@H](O)[C@H]2O)cc1O [phloretin 4′-O-α-D-glucoside, phloretin 4′-O-α-D-glucopyranoside] | – | – | – | 71 | 1644 ± 101 (≈ 3770 µM)
CCCCCCCC(=O)OC[C@H]1O[C@H](Oc2cc(O)c(C(=O)CCc3ccc(O)cc3)c(O)c2)[C@H](O)[C@@H](O)[C@@H]1O [1a, phloretin 4′-O-(6-O-octanoyl)-α-D-glucopyranoside] | 22.1 ± 0.5 (≈ 39.3 µM) | no significant effect | – | – | –
